# Laboratory results: patent publication US8241607B2, “Use of fructose-based compounds for the diagnosis of cancer” (priority 2005, dated 2012)
# “Also recorded” adds a separate entry of the source.
# System: PANC-1 cells
# Experiment: Inhibition of PANC-1 proliferation by oxythiamine (MTS assay)
# Assay type: cell-based
# Details: oxythiamine 0.5 mM, 72 h
# Description: FIG. 35 depicts inhibition of pancreatic cancer PANC-1 cell proliferation by incubation with the transketolase inhibitor, oxythiamine (0.5-2 mM) for 72 h in accordance with an embodiment of the present invention. Proliferative rates were measured using the MTS proliferation assay.
# The inventors believe that fructose-treatment of pancreatic cancer cells led to an increase in TKK-driven nucleic acid synthesis, and thus fructose-treatment would result in an increase in either PANC-1 TKK expression and/or activity in comparison to equivalent glucose concentrations. Western blot analysis on protein lysates derived from fructose-, and glucose-treated PANC-1 cells were performed (5.5 mM fructose, and glucose for 24, and 48 h as per previous protocol) using a specific TKK antibody, and compared TKK expression in the fructose-, and glucose-treated PANC-1 cells. As depicted in FIG. 33, TKK expression at 24 h, and 48 h in protein lysates derived from 5.5 mM glucose-treated PANC-1 cells was increased in comparison to expression in 2 mM glucose-treated cells. […] After gentle mixing the absorbance of the mixture was measured at 10 min intervals for 2 h at 340 nm. Transketolase activity was then derived from the difference in absorbance at 10, and 80 minutes, and expressed as nmol/min/million cells. […] Pancreatic cancer proliferation rates were then measured using the MTS assay (FIG. 35). […]
smiles,measurement,setting,value
Cc1ncc(C[n+]2csc(CCO)c2C)c(=O)[nH]1 [oxythiamine],effect on fructose-mediated increase in pancreatic cancer cell proliferation,5.5 mM fructose,virtually abolished; also recorded: almost completely abrogate
same,effect on glucose-induced and fructose-induced PANC-1 proliferation,,inhibited glucose-induced and fructose-induced PANC-1 proliferation
